Counter-ions that a name gives are not always drawn.
Experiments:
Format in all cases: biochemical
MASP-2 (CCP1-CCP2-SP) = target: T1, MASP-2 (CCP1-CCP2-SP) (Homo sapiens, UniProt O00187); experiment: Enzymatic assay for MASP-2 inhibitory activity (fluorogenic substrate)
T1 construct: 15 μL of Enzyme MASP-2 (CCP1-CCP2-SP) in Assay Buffer
In short: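 Fluorescence was normalized between no-enzyme and DMSO-only controls to derive % activity, with IC50 taken as equivalent to Ki except for tight-binding inhibitors. Reactions ran 20 min at room temperature in HEPES pH 7.4/NaCl/Tween 20 buffer, using the C2-derived fluorogenic substrate, before acetic acid stop.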

human α-thrombin = target: T2, human α-thrombin (Homo sapiens, UniProt P00734); experiment: Enzymatic assay for thrombin (fluorogenic peptide substrate Boc-VPR-AMC)
T2 construct: enzyme (human α-thrombin (BioPharm® Lab.)) in assay buffer; purchased BioPharm® Lab
In short: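 Assay conditions kept the reaction linear in time, enzyme and substrate, so IC50 approximated Ki apart from tight- or slow-binding cases. Boc-VPR-AMC cleavage by human α-thrombin proceeded 20 min at room temperature in Hepes pH 7.4/NaCl/Tween 20 buffer, then was acid-quenched and read by fluorescence.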

[1] = system: Lectin Pathway Activation in human serum; experiment: Lectin Pathway Activation (LPA) assay in human serum, mannan-coated ELISA plate, C4c detection; conditions: 1% human serum, read-out: LPA Functional Activity (IC50)
Description: Lectin Pathway Activation (LPA) Assay in Human Serum Treated with Compounds
A microtiter ELISA plate was coated with mannan (1 mg/ml) from Saccharomyces cerevisiae (Sigma-Aldrich®, M7504) overnight at 4° C. in coating buffer [33.3 mM Na2CO3, 166.67 mM NaHCO3]. The plate was blocked with 5% bovine serum albumin (BSA) (Sigma-Aldrich®, A3294) in 1×PBST [Phosphate Buffered Saline Solution (1.06 mM KH2PO4, 155.2 mM NaCl, 2.97 mM Na2HPO4^−·7H2O, pH 7.4), 0.05% Tween-20] shaking for 2 hours at room temperature. 1% human serum was incubated with serial dilutions of small compounds in 1× LPA+ Buffer [20 mM Hepes, pH 7.4, 140 mM NaCl, 2 mM MgCl2 (6H2O)] and incubated for 5 minutes at room temperature. 40 μL of this mixture was then added to the plate, and the plate was incubated at room temperature for 55 mins. Next, the reaction was stopped by adding 20 μL of EDTA Stop Solution [20 mM Hepes, pH7.4, 140 mM NaCl, 150 mM EDTA] to the plate. The plate was then washed 10× in wash buffer 1×PBST; 40 μL of Rabbit Anti Human C4c Antibody [Dako®, Q0369] diluted 1:20000 in wash buffer was added; and the plate was incubated shaking at room temperature for 30 minutes. The plate was washed [5× times]; 40 μL of Goat Anti-rabbit Antibody-HRP Conjugate [Southern Biotech®, 4050-05] diluted 1:10000 in wash buffer was added; and the plate was incubated shaking at room temperature for 30 minutes. After that, the plate was washed five times; 40 µL/well of Amplex® UltraRed Substrate Solution [1× LPA Buffer, 10 mM Amplex® UltraRed Stock Solution [Thermo Fisher Sci.®, A36006], 3% stabilized hydrogen peroxide [Sigma Aldrich®, 216763] was added; the plate was incubated at room temperature for 16 minutes; the reaction was stopped by adding 8 µL/well of Amplex® UltraRed Stop Solution [Thermo Fisher Sci.®, A33855] in 100% EtOH. Finally, the plate was read for fluorescence at Ex: 550 nm, Em: 580 nm on the i3x Microplate Reader.

T1 sequence (O00187 445-686 limits assumed): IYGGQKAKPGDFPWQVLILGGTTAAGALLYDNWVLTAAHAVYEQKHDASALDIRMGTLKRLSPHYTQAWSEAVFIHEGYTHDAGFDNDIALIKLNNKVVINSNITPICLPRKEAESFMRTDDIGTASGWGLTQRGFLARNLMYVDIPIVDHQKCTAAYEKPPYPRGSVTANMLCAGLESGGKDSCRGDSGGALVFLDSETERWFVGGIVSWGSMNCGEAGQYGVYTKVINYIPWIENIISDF
T1 sequence (O00187 287-444 partner limits assumed): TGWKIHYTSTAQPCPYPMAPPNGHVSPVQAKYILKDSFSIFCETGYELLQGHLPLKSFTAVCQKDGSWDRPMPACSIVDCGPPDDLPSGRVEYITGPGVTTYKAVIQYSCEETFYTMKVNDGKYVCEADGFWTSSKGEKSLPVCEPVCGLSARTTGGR

| Structure (SMILES) | Ki (MASP-2 (CCP1-CCP2-SP)) | Ki (human α-thrombin) | IC50 [1] |
| --- | --- | --- | --- |
| Cc1cc(F)cc(CNc2ncc3n(c2=O)[C@H](C(=O)NCc2ccc(CN)cc2)CC3)c1 [Compound 181, (S)—N-(4-(aminomethyl)benzyl)-3-((3-fluoro-5-methylbenzyl)amino)-4-oxo-4,6,7,8-tetrahydropyrrolo[1,2-a]pyrazine-6-carboxamide trifluoroacetate] | < 500 nM | 2500 to 10000 nM | 50 to 500 nM |
| COc1cc(C)cc(CNc2ncc3n(c2=O)[C@H](C(=O)N[C@H](C)c2ccc(N)nc2)CC3)c1 [Compound 194, (S)-N-((R)-1-(6-aminopyridin-3-yl)ethyl)-3-((3-methoxy-5-methylbenzyl)amino)-4-oxo-4,6,7,8-tetrahydropyrrolo[1,2-a]pyrazine-6-carboxamide trifluoroacetate] | < 500 nM | 2500 to 10000 nM | < 50 nM |
| Cc1ccc(C(F)(F)F)cc1CNc1ncc2n(c1=O)[C@H](C(=O)N[C@H](C)c1ccc(N)nc1)CC2 [Compound 197, (S)-N-((R)-1-(6-aminopyridin-3-yl)ethyl)-3-((2-methyl-5-(trifluoromethyl)benzyl)amino)-4-oxo-4,6,7,8-tetrahydropyrrolo[1,2-a]pyrazine-6-carboxamide trifluoroacetate] | < 500 nM | > 25000 nM | < 50 nM |
| Cc1cc(F)cc(CNc2ncc3n(c2=O)[C@H](C(=O)NCc2cnc(N)c(C)c2)CC3)c1 [Compound 213, (S)—N-((6-amino-5-methylpyridin-3-yl)methyl)-3-((3-fluoro-5-methylbenzyl)amino)-4-oxo-4,6,7,8-tetrahydropyrrolo[1,2-a]pyrazine-6-carboxamide trifluoroacetate] | < 500 nM | < 500 nM | 50 to 500 nM |
| Cc1nc(N)ccc1CNC(=O)[C@@H]1CCc2c(Cl)nc(NCc3cccc(-c4ccccc4)c3)c(=O)n21 [Compound 221, (S)-3-(([1,1′-biphenyl]-3-ylmethyl)amino)-N-((6-amino-2-methylpyridin-3-yl)methyl)-1-chloro-4-oxo-4,6,7,8-tetrahydropyrrolo[1,2-a]pyrazine-6-carboxamide trifluoroacetate] | < 500 nM | 2500 to 10000 nM | < 50 nM |
| [2H]C([2H])([2H])c1nc(N)ccc1CNC(=O)[C@@H]1CCc2cnc(NCc3cc(C)cc(OC)c3)c(=O)n21 [Compound 226, (S)—N-((6-amino-2-(methyl-d3)pyridin-3-yl)methyl)-3-((3-methoxy-5-methylbenzyl)amino)-4-oxo-4,6,7,8-tetrahydropyrrolo[1,2-a]pyrazine-6-carboxamide] | < 500 nM | < 500 nM | < 50 nM |
| CC1(C)C[C@@H](C(=O)NCc2cc3cnccc3[nH]2)n2c1cnc(NCc1ccccc1)c2=O [Compound 228, trifluoroacetate] | < 500 nM | 2500 to 10000 nM | < 50 nM |
| C[C@@H]1C[C@@H](C(=O)NCc2cc3cnccc3[nH]2)n2c1c(Cl)nc(NCc1ccccc1)c2=O [Compound 230, (6S,8R)-N-((1H-pyrrolo[3,2-c]pyridin-2-yl)methyl)-3-(benzylamino)-1-chloro-8-methyl-4-oxo-4,6,7,8-tetrahydropyrrolo[1,2-a]pyrazine-6-carboxamide trifluoroacetate] | < 500 nM | 500 to 2500 nM | 50 to 500 nM |
| O=C(NCc1cc2cnccc2[nH]1)[C@@H]1CCc2c(Cl)nc(NCc3cnccn3)c(=O)n21 [Compound 239] | < 500 nM | > 25000 nM | 50 to 500 nM |
| Cc1nc(N)ccc1CNC(=O)[C@@H]1CCc2c(Cl)nc(NCCc3cccnc3)c(=O)n21 [Compound 240] | < 500 nM | < 500 nM | 50 to 500 nM |
| O=C(NCc1cc2c(s1)CNC2)[C@@H]1CCc2cnc(N[C@H]3CCc4ccc(-c5ccccc5)cc43)c(=O)n21 [Compound 257] | < 500 nM | < 500 nM | < 50 nM |
| O=C(NCc1cc2c(s1)CNC2)[C@@H]1CCc2cnc(N[C@@H](c3ccccc3)C3CC3)c(=O)n21 [Compound 259, (S)-3-(((R)-cyclopropyl(phenyl)methyl)amino)-N-((5,6-dihydro-4H-thieno[2,3-c]pyrrol-2-yl)methyl)-4-oxo-4,6,7,8-tetrahydropyrrolo[1,2-a]pyrazine-6-carboxamide trifluoroacetate] | < 500 nM | < 500 nM | < 50 nM |
| C[C@@H](CNc1ncc2n(c1=O)[C@H](C(=O)NCc1cc3c(s1)CNC3)CC2)c1ccccc1 [Compound 276, (S)-N-((5,6-dihydro-4H-thieno[2,3-c]pyrrol-2-yl)methyl)-4-oxo-3-(((R)-2-phenylpropyl)amino)-4,6,7,8-tetrahydropyrrolo[1,2-a]pyrazine-6-carboxamide trifluoroacetate] | < 500 nM | < 500 nM | < 50 nM |
| CC[C@@H](Nc1ncc2n(c1=O)[C@H](C(=O)N[C@H](C)c1cc3c(s1)CNC3)CC2)c1ccccc1 [Compound 277] | < 500 nM | 500 to 2500 nM | 50 to 500 nM |

Source: patent US20250122225A1, “MASP-2 INHIBITORS AND METHODS OF USE” (Omeros Corporation, priority 2023, published 2025)
